Test results as given in patent publication US11377425B1, “Small molecule modulators of IL-17” (LEO Pharma A/S, priority 2018, dated 2022).

Target: T1, human IL-17AA (Homo sapiens, UniProt Q16552)
T1 construct: host or cells: HEK (human embryonic kidney) cells
T1 sequence (Q16552 24-155): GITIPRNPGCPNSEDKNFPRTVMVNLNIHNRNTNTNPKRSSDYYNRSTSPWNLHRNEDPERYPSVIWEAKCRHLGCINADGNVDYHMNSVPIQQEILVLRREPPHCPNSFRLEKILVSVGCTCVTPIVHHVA
Assay: IL-8 release assay in human epithelial keratinocytes adult (HEKa)
Format: cell-based
Details: HEKa cells, 3 ng/mL HEK-human IL-17AA + 10 ng/mL human TNFalpha; read-out: Rel EC50 IL-8 release assay
Procedure, shortened: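 Adult human epidermal keratinocytes stimulated 68-72 h at 37 °C with 3 ng/mL HEK-derived human IL-17AA plus 10 ng/mL TNF-alpha (final) in the presence of compound; TNF-alpha alone defines 100% inhibition. Secreted IL-8 measured by HTRF as percent of controls; relative IC50/Emax from four-parameter fit (r^2>0.9), cytotoxicity by PrestoBlue.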

| Compound | EC50 |
| --- | --- |
| Cc1n[nH]c(C)c1-c1ccc(NC(=O)[C@@H](NC(=O)c2ccnn2C(C)C)[C@@H]2CC(C)(C)CCC2(F)F)cc1 [Example 212, N-[(1S)-1-[(1S)-2,2-difluoro-5,5-dimethyl-cyclohexyl]-2-[4-(3,5-dimethyl-1H-pyrazol-4-yl)anilino]-2-oxo-ethyl]-2-isopropyl-pyrazole-3-carboxamide] | < 0.1 µM |
| CCn1nccc1C(=O)N[C@H](C(=O)Nc1ccc(-c2c(C)n[nH]c2C)cc1)[C@@H]1CC(C)(C)CCC1(F)F [Example 213, N-[(1S)-1-[(1S)-2,2-difluoro-5,5-dimethyl-cyclohexyl]-2-[4-(3,5-dimethyl-1H-pyrazol-4-yl)anilino]-2-oxo-ethyl]-2-ethyl-pyrazole-3-carboxamide] | < 0.1 µM |
| Cc1n[nH]c(C)c1-c1ccc(NC(=O)[C@@H](NC(=O)c2ccn[nH]2)C(C2CC2)C2CC2)cc1 [Example 216, N-[(1S)-1-(dicyclopropylmethyl)-2-[4-(3,5-dimethyl-1H-pyrazol-4-yl)anilino]-2-oxo-ethyl]-1H-pyrazole-5-carboxamide] | 0.1 to 1 µM |
| Cc1n[nH]c(C)c1-c1ccc(NC(=O)[C@@H](NC(=O)c2ccnn2C(C)CF)C(C2CC2)C2CC2)cc1 (stereo partly drawn) [Example 218, N-[(1S)-1-(dicyclopropylmethyl)-2-[4-(3,5-dimethyl-1H-pyrazol-4-yl)anilino]-2-oxo-ethyl]-2-(2-fluoro-methyl-ethyl)pyrazole-3-carboxamide] | < 0.1 µM |
| Cc1n[nH]c(C)c1-c1ccc(NC(=O)[C@@H](NC(=O)c2ccnn2C2CCOC2)C(C2CC2)C2CC2)cc1 (stereo partly drawn) [Example 219, N-[(1S)-1-(dicyclopropylmethyl)-2-[4-(3,5-dimethyl-1H-pyrazol-4-yl)anilino]-2-oxo-ethyl]-2-tetrahydrofuran-3-yl-pyrazole-3-carboxamide] | < 0.1 µM |
| Cc1n[nH]c(C)c1-c1ccc(NC(=O)[C@@H](NC(=O)c2ccnn2C)C(C)C2CCCCC2)cc1 (stereo partly drawn) [Example 220, N-[(1S)-2-cyclohexyl-1-[[4-(3,5-dimethyl-1H-pyrazol-4-yl)phenyl]carbamoyl]propyl]-2-methyl-pyrazole-3-carboxamide] | < 0.1 µM |
| Cc1n[nH]c(C)c1-c1ccc(NC(=O)[C@@H](NC(=O)c2ccnn2C(C)C2CC2)C(C2CC2)C2CC2)cc1 (stereo partly drawn) [Example 222, 2-(1-cyclopropylethyl)-N-[(1S)-1-(dicyclopropylmethyl)-2-[4-(3,5-dimethyl-1H-pyrazol-4-yl)anilino]-2-oxo-ethyl]pyrazole-3-carboxamide] | < 0.1 µM |
| Cc1n[nH]c(C)c1-c1ccc(NC(=O)[C@H](CC2CCC2)NC(=O)c2ccnn2C)cc1 [Example 229, N-[(1S)-1-(cyclobutylmethyl)-2-[4-(3,5-dimethyl-1H-pyrazol-4-yl)anilino]-2-oxo-ethyl]-2-methyl-pyrazole-3-carboxamide] | > 1 µM |
| Cc1n[nH]c(C)c1-c1ccc(NC(=O)[C@@H](NC(=O)c2ccnn2C)C2CCCC2(C)C)cc1 (stereo partly drawn) [Example 231, N-[(1S)-1-(2,2-dimethylcyclopentyl)-2-[4-(3,5-dimethyl-1H-pyrazol-4-yl)anilino]-2-oxo-ethyl]-2-methyl-pyrazole-3-carboxamide] | < 0.1 µM |
| Cc1n[nH]c(C)c1-c1ccc(NC(=O)C(NC(=O)c2ccnn2C)C2CC3CC3C2)cc1 [Example 233, N-[(1S)-1-[(1R,55)-3-bicyclo[3.1.0]2-[4-(3,5-dimethyl-1H-pyrazol-4-yl)anilino]-2-oxo-ethyl]-2-methyl-pyrazole-3-carboxamide] | 0.1 to 1 µM |
| Cc1n[nH]c(C)c1-c1ccc(NC(=O)[C@@H](NC(=O)c2ccnn2C)[C@@H]2CCCC3(CC3)C2)cc1 [Example 241, N-[(1S)-2-[4-(3,5-dimethyl-1H-pyrazol-4-yl)anilino]-2-oxo-1-[(7R)-spiro[2.5]octan-7-yl]ethyl]-2-methyl-pyrazole-3-carboxamide] | 0.1 to 1 µM |
| Cc1n[nH]c(C)c1-c1ccc(NC(=O)C(NC(=O)c2ccnn2C(C)C)C2CCCC2C)cc1 (stereo not drawn) [Example 251, N-[2-[4-(3,5-dimethyl-1H-pyrazol-4-yl)anilino]-1-(2-methylcyclopentyl)-2-oxo-ethyl]-2-isopropyl-pyrazole-3-carboxamide] | < 0.1 µM |
| Cc1n[nH]c(C)c1-c1ccc(NC(=O)[C@@H](NC(=O)c2ccnn2C)[C@@H]2CCCc3c(F)cc(Br)cc32)cc1 [Example 262] | 0.1 to 1 µM |

Next, values leading:

| EC50 | Compound |
| --- | --- |
| 0.1 to 1 µM | Cc1n[nH]c(C)c1-c1ccc(NC(=O)[C@@H](NC(=O)c2ccnn2CC#N)C(C2CC2)C2CC2)cc1 [Example 207, 2-(cyanomethyl)-N-[(1S)-1-(dicyclopropylmethyl)-2-[4-(3,5-dimethyl-1H-pyrazol-4-yl)anilino]-2-oxo-ethyl]pyrazole-3-carboxamide] |
| < 0.1 µM | Cc1n[nH]c(C)c1-c1ccc(NC(=O)[C@@H](NC(=O)c2ccnn2CCCO)[C@H]2CC[C@H](C)CC2)cc1 [Example 208, N-[(1S)-2-[4-(3,5-dimethyl-1H-pyrazol-4-yl)anilino]-1-(trans-4-methylcyclohexyl)-2-oxo-ethyl]-2-(3-hydroxypropyl)pyrazole-3-carboxamide] |
| < 0.1 µM | Cc1n[nH]c(C)c1-c1ccc(NC(=O)[C@@H](NC(=O)c2ccnn2CCCO)[C@@H]2CC(C)(C)CCC2(F)F)cc1 [Example 209, N-[(1S)-1-[(1S)-2,2-difluoro-5,5-dimethyl-cyclohexyl]-2-[4-(3,5-dimethyl-1H-pyrazol-4-yl)anilino]-2-oxo-ethyl]-2-(3-hydroxypropyl)pyrazole-3-carboxamide] |
| < 0.1 µM | Cc1n[nH]c(C)c1-c1ccc(NC(=O)[C@@H](NC(=O)c2ccnn2C)[C@@H]2CC(C)(C)CCC2(F)F)cc1 [Example 214, N-[(1S)-1-[(1S)-2,2-difluoro-5,5-dimethyl-cyclohexyl]-2-[4-(3,5-dimethyl-1H-pyrazol-4-yl)anilino]-2-oxo-ethyl]-2-methyl-pyrazole-3-carboxamide] |
| < 0.1 µM | Cc1n[nH]c(C)c1-c1ccc(NC(=O)[C@@H](NC(=O)c2ccnn2CCC(F)F)C(C2CC2)C2CC2)cc1 [Example 215, N-[(1S)-1-(dicyclopropylmethyl)-2-[4-(3,5-dimethyl-1H-pyrazol-4-yl)anilino]-2-oxo-ethyl]-2-(3,3-difluoropropyl)pyrazole-3-carboxamide] |
| < 0.1 µM | Cc1n[nH]c(C)c1-c1ccc(NC(=O)[C@@H](NC(=O)c2ccnn2C(CF)CF)C(C2CC2)C2CC2)cc1 [Example 217] |
| < 0.1 µM | Cc1n[nH]c(C)c1-c1ccc(NC(=O)[C@@H](NC(=O)c2ccnn2C)C2CCCCC2(C)C)cc1 (stereo partly drawn) [Example 230, N-[(1S)-1-(2,2-dimethylcyclohexyl)-2-[4-(3,5-dimethyl-1H-pyrazol-4-yl)anilino]-2-oxo-ethyl]-2-methyl-pyrazole-3-carboxamide] |
| 0.1 to 1 µM | Cc1n[nH]c(C)c1-c1ccc(NC(=O)[C@@H](NC(=O)c2ccnn2C)C2CCC(C)(C)CC2)cc1 [Example 238, N-[(1S)-1-(4,4-dimethylcyclohexyl)-2-[4-(3,5-dimethyl-1H-pyrazol-4-yl)anilino]-2-oxo-ethyl]-2-methyl-pyrazole-3-carboxamide] |
| > 1 µM | Cc1n[nH]c(C)c1-c1ccc(NC(=O)[C@H](CC2CC2)NC(=O)c2ccnn2C)cc1 [Example 243, N-[(1S)-1-(cyclopropylmethyl)-2-[4-(3,5-dimethyl-1H-pyrazol-4-yl)anilino]-2-oxo-ethyl]-2-methyl-pyrazole-3-carboxamide] |
| < 0.1 µM | Cc1n[nH]c(C)c1-c1ccc(NC(=O)[C@@H](NC(=O)c2ccnn2C)C(C(C)C)C(C)C)cc1 [Example 244] |
| 0.1 to 1 µM | Cc1n[nH]c(C)c1-c1ccc(NC(=O)[C@@H](NC(=O)c2ccnn2C)C2C(C)(C)C2(C)C)cc1 [Example 245, N-[(1S)-2-[4-(3,5-dimethyl-1H-pyrazol-4-yl)anilino]-2-oxo-1-(2,2,3,3-tetramethylcyclopropyl)ethyl]-2-methyl-pyrazole-3-carboxamide] |
| 0.1 to 1 µM | Cc1n[nH]c(C)c1-c1ccc(NC(=O)[C@@H](NC(=O)c2ccnn2C)C2[C@H]3CCCC[C@@H]23)cc1 (stereo partly drawn) [Example 246, N-[(1S)-2-[4-(3,5-dimethyl-1H-pyrazol-4-yl)anilino]-1-[(1S,6R)-norcaran-7-yl]-2-oxo-ethyl]-2-methyl-pyrazole-3-carboxamide] |
| < 0.1 µM | Cc1n[nH]c(C)c1-c1ccc(NC(=O)[C@@H](NC(=O)c2ccnn2C)[C@H]2CCc3c(F)cc(F)cc32)cc1 [Example 249, N-[(1S)-1-[(1S)-4,6-difluoroindan-1-yl]-2-[4-(3,5-dimethyl-1H-pyrazol-4-yl)anilino]-2-oxo-ethyl]-2-methyl-pyrazole-3-carboxamide] |
| < 0.1 µM | Cc1n[nH]c(C)c1-c1ccc(NC(=O)[C@@H](NC(=O)c2ccnn2C)[C@H]2CCCC3(CC3)C2)cc1 [Example 250, N-[(1S)-2-[4-(3,5-dimethyl-1H-pyrazol-4-yl)anilino]-2-oxo-1-[(7S)-spiro[2.5]octan-7-yl]ethyl]-2-methyl-pyrazole-3-carboxamide] |
| > 1 µM | Cc1n[nH]c(C)c1-c1ccc(NC(=O)[C@H](CC2CCC(F)(F)CC2)NC(=O)c2ccnn2C)cc1 [Example 253, N-[(1S)-1-[(4,4-difluorocyclohexyl)methyl]-2-[4-(3,5-dimethyl-1H-pyrazol-4-yl)anilino]-2-oxo-ethyl]-2-methyl-pyrazole-3-carboxamide] |
| < 0.1 µM | Cc1n[nH]c(C)c1-c1ccc(NC(=O)C(NC(=O)c2ccnn2C)[C@H]2CCCc3ccc(F)cc32)cc1 (stereo partly drawn) [Example 261] |
| 0.1 to 1 µM | Cc1n[nH]c(C)c1-c1ccc(NC(=O)[C@@H](NC(=O)c2conc2C(C)C)C2CCC3(CC2)CC3)cc1 [Example 263, N-[(1S)-2-[4-(3,5-dimethyl-1H-pyrazol-4-yl)anilino]-2-oxo-1-spiro[2.5]octan-6-yl-ethyl]-3-isopropyl-isoxazole-4-carboxamidet] |
